Literature values in US20220054404A1, “SUBCUTANEOUS ADMINISTRATION OF NANOPARTICLES COMPRISING AN MTOR INHIBITOR AND ALBUMIN FOR TREATMENT OF DISEASES” (Abraxis BioScience, LLC, priority 2019, published 2022).

Test system: ABCB1/ABCG2

COc1ccc(COc2cc3oc(=O)c4cc(C(C)O)ccc4c3cc2OC)cc1 (stereo not shown) [Palomid 529]
Affinity for ABCB1/ABCG2: lacks affinity for ABCB1/ABCG2
